Experiments:
SK-BR-3 cells = experiment: Determination of cell growth inhibition (crystal violet staining method); assay type: cell-based; conditions: Homo sapiens; breast cancer cells SK-BR-3, 72 hours culture with test substance
Procedure, shortened: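 SK-BR-3 cells seeded 5,000/well, cultured 24 h at 37 °C, then exposed to compound for 72 h. Cells fixed with glutaraldehyde, stained with 0.05% crystal violet, eluted and read at 540 nm; percent growth inhibition calculated versus untreated wells.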

[1] = target: human HSP90 alpha protein (N-terminal, amino acids 2 to 236) (Homo sapiens (Human), UniProt P07900); experiment: Determination of HSP90-binding activity (AlphaScreen competitive assay with biotinylated geldanamycin); conditions: inhibition of binding of biotinylated geldanamycin to purified HSP90 N-terminal protein, read-out: HSP-binding activity IC50
Procedure, shortened: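 His-tagged N-terminal construct (aa 2–236) expressed in E. coli and purified was preincubated with compound 2 h at room temperature, then biotinylated geldanamycin (40 nM/well) added for 1 h. AlphaScreen nickel-chelate acceptor/streptavidin donor beads, 1 h dark; percent inhibition calculated against no-compound signal.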

Compound | IC50 (SK-BR-3 cells) [µM] | IC50 [1] [µM]
CCCNc1cc(C(N)=O)ccc1-c1cc(C(F)(F)F)nc2c(-n3cnc(-c4cnn(C)c4)c3)cccc12 [Example 87, 4-(8-(4-(1-Methyl-1H-pyrazol-4-yl)-1H-imidazol-1-yl)-2-(trifluoromethyl)quinolin-4-yl)-3-(propylamino)benzamide] | 0.08 | 0.28
NC(=O)c1ccc(-c2cc(C(F)(F)F)nc3c(-n4cnc(-c5cccnc5)c4)cccc23)cn1 [Example 88, 5-(8-(4-(Pyridin-3-yl)-1H-imidazol-1-yl)-2-(trifluoromethyl)quinolin-4-yl)picolinamide] | 0.07 | 0.35
CCNc1cc(-c2cc(C(F)(F)F)nc3c(-n4cnc(-c5cnn(CC)c5)c4)cccc23)ccc1C(N)=O [Example 89, 4-(8-(4-(1-Ethyl-1H-pyrazol-4-yl)-1H-imidazol-1-yl)-2-(trifluoromethyl)quinolin-4-yl)-2-(ethylamino)benzamide] | 0.01 | 0.22
CCn1cc(-c2cn(-c3cccc4c(-c5ccc(C(N)=O)c(NC(C)(C)C)c5)cc(C(F)(F)F)nc34)cn2)cn1 [Example 90, 2-(Tert-butylamino)-4-(8-(4-(1-ethyl-1H-pyrazol-4-yl)-1H-imidazol-1-yl)-2-(trifluoromethyl)quinolin-4-yl)benzamide] | 0.03 | 0.58
CC(C)(C)Nc1cc(-c2cc(C(F)(F)F)nc3c(-n4cnc(-c5cnn(C(F)F)c5)c4)cccc23)ccc1C(N)=O [Example 92, 2-(Tert-butylamino)-4-(8-(4-(1-difluoromethyl-1H-pyrazol-4-yl)-1H-imidazol-1-yl)-2-(trifluoromethyl)quinolin-4-yl)benzamide] | 0.02 | 0.79
Cc1cc2c(-n3cnc(-c4cnn(C)c4)c3)cccc2c(-c2ccc(C(N)=O)c(NC(C)(C)C)c2)n1 [Example 93, 2-(Tert-butylamino)-4-(3-methyl-5-(4-(1-methyl-1H-pyrazol-4-yl)-1H-imidazol-1-yl)isoquinolin-1-yl)benzamide] | 0.02 | 0.1
Cc1cc(C(N)=O)ccc1-c1cc(C(F)(F)F)nc2c(-n3cnc(-c4cnn(C(F)F)c4)c3)cccc12 [Example 94, 4-(8-(4-(1-Difluoromethyl-1H-pyrazol-4-yl)-1H-imidazol-1-yl)-2-(trifluoromethyl)quinolin-4-yl)-3-methylbenzamide] | 0.11 | 0.5
Cc1cc2c(-n3cnc(-c4cnn(C)c4)c3)cccc2c(-c2ccc(C(N)=O)cc2C)n1 [Example 95, 3-Methyl-4-(3-methyl-5-(4-(1-methyl-1H-pyrazol-4-yl)-1H-imidazol-1-yl)isoquinolin-1-yl)benzamide] | 1.02 | 0.4
Cn1cc(-c2cn(-c3cccc4c(-c5ccc(C(N)=O)c(NC(C)(C)C)c5)nccc34)cn2)cn1 [Example 96, 2-(Tert-butylamino)-4-(5-(4-(1-methyl-1H-pyrazol-4-yl)-1H-imidazol-1-yl)isoquinolin-1-yl)benzamide] | 0.06 | 0.14
Cc1cc(-c2ccc(C(N)=O)c(NC(C)(C)C)c2)c2cccc(-n3cnc(-c4cnn(C)c4)c3)c2n1 [Example 97, 2-(Tert-butylamino)-4-(2-methyl-8-(4-(1-methyl-1H-pyrazol-4-yl)-1H-imidazol-1-yl)quinolin-4-yl)benzamide] | 0.02 | 0.16
COCCNc1cc(-c2nc(C)cc3c(-n4cnc(-c5cnn(C)c5)c4)cccc23)ccc1C(N)=O [Example 98, 2-(2-Methoxyethylamino)-4-(3-methyl-5-(4-(1-methyl-1H-pyrazol-4-yl)-1H-imidazol-1-yl)isoquinolin-1-yl)benzamide] | 0.02 | 0.08
Cc1ccc(-c2cn(-c3cccc4c(-c5ccc(C(N)=O)cc5C)cc(C(F)(F)F)nc34)cn2)cn1 [Example 100, 3-Methyl-4-(8-(4-(6-methylpyridin-3-yl)-1H-imidazol-1-yl)-2-(trifluoromethyl)quinolin-4-yl)benzamide] | 0.26 | 0.34
Cc1cc(-c2ccc(C(N)=O)cc2C)c2cccc(-n3cnc(-c4cnn(C)c4)c3)c2n1 [Example 102, 3-Methyl-4-(2-methyl-8-(4-(1-methyl-1H-pyrazol-4-yl)-1H-imidazol-1-yl)quinolin-4-yl)benzamide] | 0.63 | 0.25
CCc1cc(-c2ccc(C(N)=O)c(NC(C)(C)C)c2)c2cccc(-n3cnc(-c4cnn(C)c4)c3)c2n1 [Example 103, 2-(Tert-butylamino)-4-(2-ethyl-8-(4-(1-methyl-1H-pyrazol-4-yl)-1H-imidazol-1-yl)quinolin-4-yl)benzamide] | 0.01 | 0.12
Cn1cc(-c2cn(-c3cccc4c(-c5ccc(C(N)=O)c(NC(C)(C)C)c5)cc(C5CC5)nc34)cn2)cn1 [Example 105, 2-(Tert-butylamino)-4-(2-cyclopropyl-8-(4-(1-methyl-1H-pyrazol-4-yl)-1H-imidazol-1-yl)quinolin-4-yl)benzamide] | 0.02 | 0.4
CCNc1cc(-c2cccc3c(-n4cnc(-c5cnn(C)c5)c4)ccnc23)ccc1C(N)=O [Example 119, 2-(Ethylamino)-4-(4-(4-(1-methyl-1H-pyrazol-4-yl)-1H-imidazol-1-yl)quinolin-8-yl)benzamide] | 0.84 | 0.83

Now from value to molecule:

IC50 (SK-BR-3 cells) [µM] | IC50 [1] [µM] | Compound
0.04 | 0.27 | Cc1ccc(-c2cn(-c3cccc4c(-c5ccc(C(N)=O)c(NC(C)(C)C)c5)cc(C(F)(F)F)nc34)cn2)cn1 [Example 99, 2-(Tert-butylamino)-4-(8-(4-(6-methylpyridin-3-yl)-1H-imidazol-1-yl)-2-(trifluoromethyl)quinolin-4-yl)benzamide]
0.12 | 0.12 | Cc1cc(-c2ccc(C(N)=O)c(N)c2)c2cccc(-n3cnc(-c4cnn(C)c4)c3)c2n1 [Example 101, 2-Amino-4-(2-methyl-8-(4-(1-methyl-1H-pyrazol-4-yl)-1H-imidazol-1-yl)quinolin-4-yl)benzamide]
0.01 | 0.06 | CCc1cc(-c2ccc(C(N)=O)c(N)c2)c2cccc(-n3cnc(-c4cnn(C)c4)c3)c2n1 [Example 104, 2-Amino-4-(2-ethyl-8-(4-(1-methyl-1H-pyrazol-4-yl)-1H-imidazol-1-yl)quinolin-4-yl)benzamide]
0.34 | 3.75 | NC(=O)c1ccc(-c2cc(C(F)(F)F)nc3c(-n4cnc(-c5ccccc5)c4)cccc23)cc1N [Example 108, 2-Amino-4-(8-(4-phenyl-1H-imidazol-1-yl)-2-(trifluoromethyl)quinolin-4-yl)benzamide]
0.21 | 4.36 | CC(C)OCCNc1cc(-c2cc(C(F)(F)F)nc3c(-n4cnc(-c5ccccc5)c4)cccc23)ccc1C(N)=O [Example 109, 2-(Isopropoxyethylamino)-4-(8-(4-phenyl-1H-imidazol-1-yl)-2-(trifluoromethyl)quinolin-4-yl)benzamide]
0.1 | 0.38 | NC(=O)c1ccc(-c2cc(C(F)(F)F)nc3c(-c4cnc5ccccc5c4)cccc23)cc1N [Example 110, 2-Amino-4-(2′-(trifluoromethyl)-3,8′-biquinolin-4′-yl)benzamide]
0.06 | 0.84 | CC(C)OCCNc1cc(-c2cc(C(F)(F)F)nc3c(-c4cnc5ccccc5c4)cccc23)ccc1C(N)=O [Example 111, 2-(2-Isopropoxyethylamino)-4-(2′-(trifluoromethyl)-3,8′-biquinolin-4′-yl)benzamide]
0.02 | 0.5 | CC(C)c1cc(-c2ccc(C(N)=O)c(NC(C)(C)C)c2)c2cccc(-n3cnc(-c4cnn(C)c4)c3)c2n1 [Example 112, 2-(Tert-butylamino)-4-(2-isopropyl-8-(4-(1-methyl-1H-pyrazol-4-yl)-1H-imidazol-1-yl)quinolin-4-yl)benzamide]
0.01 | 0.08 | CC(C)c1cc(-c2ccc(C(N)=O)c(N)c2)c2cccc(-n3cnc(-c4cnn(C)c4)c3)c2n1 [Example 113, 2-Amino-4-(2-isopropyl-8-(4-(1-methyl-1H-pyrazol-4-yl)-1H-imidazol-1-yl)quinolin-4-yl)benzamide]
0.01 | 0.07 | NC(=O)c1ccc(-c2nc(C(F)(F)F)nc3c(-c4cnc5ccccc5c4)cccc23)cc1NC1CCC(O)CC1 (centres unmarked) [Example 114, 2-(4-Hydroxycyclohexylamino)-4-(8-(quinolin-3-yl)-2-(trifluoromethyl)quinazolin-4-yl)benzamide]
0.01 | 0.14 | NC(=O)c1ccc(-c2nc(C3CC3)nc3c(-c4cnc5ccccc5c4)cccc23)cc1NC1CCC(O)CC1 (centres unmarked) [Example 115, 4-(2-Cyclopropyl-8-(quinolin-3-yl)quinazolin-4-yl)-2-(4-hydroxycyclohexylamino)benzamide]
0.05 | 0.29 | NC(=O)c1ccc(-c2ccnc3c(-c4cnc5ccccc5c4)cccc23)cc1NC1CCC(O)CC1 (centres unmarked) [Example 117, 4-(3,8′-Biquinolin-4′-yl)-2-(4-hydroxycyclohexylamino)benzamide]
0.06 | 0.25 | Cc1ccc(-c2cn(-c3cccc4c(-c5ccc(C(N)=O)c(N)c5)cc(C(F)(F)F)nc34)cn2)cn1 [Example 118, 2-Amino-4-(8-(4-(6-methylpyridin-3-yl)-1H-imidazol-1-yl)-2-(trifluoromethyl)quinolin-4-yl)benzamide]
0.03 | 0.19 | CCc1cc(-c2ccc(C(N)=O)c(N)c2)c2cccc(-c3cnc4ccccc4c3)c2n1 [Example 120, 2-Amino-4-(2′-ethyl-3,8′-biquinolin-4′-yl)benzamide]
0.02 | 0.18 | CC(C)c1cc(-c2ccc(C(N)=O)c(N)c2)c2cccc(-c3cnc4ccccc4c3)c2n1 [Example 121, 2-Amino-4-(2′-isopropyl-3,8′-biquinolin-4′-yl)benzamide]

— US8912181B2 (Taiho Pharmaceutical Co., Ltd., priority 2011, dated 2014)
